From ChEMBL document CHEMBL2073976, “Circumvention of multidrug resistance by a newly synthesized quinoline derivative, MS-073” (Cancer Res, 1991)

Molecular target: ATP-dependent translocase ABCB1 (Homo sapiens, UniProt P08183)
Assay: TP_TRANSPORTER: increase in VCR intracellular accumulation (VCR: 0.03 uM, MS-073: 3 uM) in K562/ADM cells
Assay type: functional, cell-based
Settings: k562/adr

Sequence of ATP-dependent translocase ABCB1 (P08183 whole entry): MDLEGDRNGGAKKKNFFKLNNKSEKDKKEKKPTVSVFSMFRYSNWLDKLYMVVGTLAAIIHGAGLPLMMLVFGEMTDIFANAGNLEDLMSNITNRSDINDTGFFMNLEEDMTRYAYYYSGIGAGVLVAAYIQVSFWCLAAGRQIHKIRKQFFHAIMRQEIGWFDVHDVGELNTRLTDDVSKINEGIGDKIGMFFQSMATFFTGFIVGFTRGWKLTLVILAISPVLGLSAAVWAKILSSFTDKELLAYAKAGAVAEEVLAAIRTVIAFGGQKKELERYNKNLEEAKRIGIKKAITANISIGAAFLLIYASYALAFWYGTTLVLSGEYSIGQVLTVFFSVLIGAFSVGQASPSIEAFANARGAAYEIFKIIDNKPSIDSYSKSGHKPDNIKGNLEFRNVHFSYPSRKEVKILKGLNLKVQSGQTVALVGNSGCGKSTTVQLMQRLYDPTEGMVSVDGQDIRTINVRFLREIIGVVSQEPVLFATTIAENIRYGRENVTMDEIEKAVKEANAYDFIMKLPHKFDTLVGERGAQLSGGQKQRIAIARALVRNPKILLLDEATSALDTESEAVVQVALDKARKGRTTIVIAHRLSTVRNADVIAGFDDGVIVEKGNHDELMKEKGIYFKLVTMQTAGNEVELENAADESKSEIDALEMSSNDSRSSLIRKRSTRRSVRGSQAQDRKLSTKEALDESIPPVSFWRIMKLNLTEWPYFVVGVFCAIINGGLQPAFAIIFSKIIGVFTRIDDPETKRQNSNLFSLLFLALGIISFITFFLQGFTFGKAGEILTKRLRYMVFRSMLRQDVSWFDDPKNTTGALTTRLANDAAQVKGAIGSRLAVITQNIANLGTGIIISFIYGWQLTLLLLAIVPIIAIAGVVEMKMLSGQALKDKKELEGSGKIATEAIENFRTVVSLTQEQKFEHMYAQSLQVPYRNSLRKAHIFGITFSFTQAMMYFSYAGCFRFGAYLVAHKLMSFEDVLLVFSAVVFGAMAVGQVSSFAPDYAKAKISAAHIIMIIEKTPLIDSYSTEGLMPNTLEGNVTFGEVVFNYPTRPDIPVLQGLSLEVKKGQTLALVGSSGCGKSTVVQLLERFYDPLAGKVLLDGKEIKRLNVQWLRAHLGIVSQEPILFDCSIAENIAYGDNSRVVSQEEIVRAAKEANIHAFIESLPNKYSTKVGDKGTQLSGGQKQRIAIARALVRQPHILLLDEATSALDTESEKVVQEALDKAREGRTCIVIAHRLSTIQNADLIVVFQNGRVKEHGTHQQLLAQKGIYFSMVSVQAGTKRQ

**Q.** `OC(COc1cccc2ncccc12)CN1CCN(C2c3ccccc3CCc3ccccc32)CC1` (stereo unspecified) was tested. Which Activity did it give?
**A.** Its Activity is “inhibitor [+]”.
